Measurements as given in patent US20250360091A1, “COMBINATION OF SGLT2 INHIBITOR AND MENTHOL AND USE THEREOF IN TREATMENT OF HEART DISEASE” (EAST CHINA UNIVERSITY OF SCIENCE AND TECHNOLOGY, priority 2023, published 2025).

Assays:
[1] = test system: Rat cardiomyocytes (H9c2); assay: GD-induced myocardial cell damage model, CCK-8, SGLT2 inhibitors with L-menthol (Example 9); assay type: cell-based; conditions: single drugs: SGLT2 inhibitor 50 μM or menthol 200 μM; GD 36-48 h; untreated group 54.7%
Experimental: In this example, the protective effect of the drug composition on myocardial cells was evaluated by using a GD-induced myocardial cell damage model. […] Rat cardiomyocytes (H9c2) were purchased from the Chinese Academy of Sciences Stem Cell Bank. The cardiomyocytes were cultured in high-glucose DMEM medium (Gibco, 11995-065) containing 10% fetal bovine serum and 1% penicillin/streptomycin, and incubated in a 37° C., 5% CO2 incubator. […] When the cells reached confluence, the DMEM medium was removed, and the cells were washed once with PBS. […] The synergistic coefficient was calculated using the Zero interaction dose model, with the formula: CI=(EAB−EA*EB)/(EA+EB−EA*EB), wherein CI is the synergistic effect index, EAB is the efficacy index of the combination of drugs, and EA and EB are the efficacy indices of the individual drugs, respectively.

H9c2 cells = assay: Oil Red O staining of palmitic acid-induced lipid accumulation (Example 6); assay type: cell-based, Rat; conditions: used alone: EMPA 50 or 100 μM, MEN 200 μM; 24 h after 200 μM palmitic acid 48 h
Experimental: 1. Oil Red O staining. H9c2 cells were seeded in 12-well plates (1×10^5 cells per well) and cultured to 80-90% confluence. The cells were incubated with lipid medium containing 200 μM palmitic acid (Sigma-Aldrich, P0500) for 48 h to induce lipid droplet accumulation. The lipid medium was removed, and the cells were cultured for 24 h with medium containing 50 μM EMPA (E50, EMPA-50), 100 μM EMPA (E100), 200 μM MEN (M200), and 50 μM EMPA+200 μM MEN (E50+M200) but without palmitic acid. After the incubation, the cells were stained with Oil Red. The cells were washed 3 times with PBS and fixed with 4% paraformaldehyde at room temperature for 30 min. They were washed again with PBS 3 times and incubated with Oil Red O working solution at room temperature for 30 min. After rinsing with PBS 3 times, the cells were imaged under a microscope. The red area (positive area of lipid accumulation) was measured using Image J software package. The experiment was divided into 6 groups, black group (blank group, not treated with lipid medium and drugs), control group (control group, treated with lipid medium but not treated with drugs), E50 group (treated with lipid medium and then 50 μM EMPA), E100 (treated with lipid medium and then 100 μM EMPA), M200 (treated with lipid medium and then 200 μM menthol), E50+M200 (treated with lipid medium and then 50 μM empagliflozin+200 μM menthol).

[2] = test system: intracellular calcium concentration; assay: Intracellular calcium ion concentration with calcium probe Fluo4-AM (Example 5); assay type: cell-based; conditions: cariporide 100 μM, empagliflozin 50 μM, menthol 200 μM, combination 50 μM + 200 μM
Text: Intracellular calcium overload is an important factor in the transition of myocardial cells from reversible to irreversible damage. Intracellular calcium overload can be seen in a variety of cardiac pathological states, such as cardiac remodeling, myocardial ischemia-reperfusion injury, viral myocarditis, dilated cardiomyopathy, arrhythmias, and congestive heart failure. […] Empagliflozin can act on the sodium-hydrogen exchanger 1 (NHE1) on the myocardial cell membrane. When myocardial ischemia occurs, myocardial cell energy metabolism is impaired, and myocardial cells switch from fatty acid metabolism to sugar-free glycolysis, producing a large amount of lactic acid, which reduces the intracellular pH. As a regulatory protein for cell pH homeostasis, NHE1 can transport H^+ out of the cell by exchanging extracellular sodium ions, resulting in an increase in the intracellular sodium ion concentration. […] When mitochondrial function is impaired, the release of ROS increases, and ROS can further stimulate L-type calcium channels, promoting Ca^2+ influx, creating a vicious cycle. Empagliflozin inhibits the activity of NHE1 and can indirectly reduce the intracellular calcium ion concentration. Menthol, as an L-type calcium channel blocker, can synergistically reduce the intracellular calcium ion concentration with empagliflozin, playing a synergistic role. In order to verify this synergistic mechanism, the intracellular calcium ion concentration was detected using the calcium ion probe Fluo4-AM.
The experiment was divided into 5 groups, including control group (no drug group), cariporide group (positive control group, 100 μM), EMPA-50 (empagliflozin, 50 μM), M-200 (menthol, 200 μM), and E50+M200 (combination of 50 μM empagliflozin and 200 μM menthol).
• (1) Take an appropriate amount of Fluo4-AM stock solution (2 mM, BeyoTime, S1060) and dilute it to a 10 μM working solution with HBSS; • (2) For the cells to be tested (covering the bottom of the dish), remove the culture medium and wash with HBSS three times; • (3) Add 25 μL of Fluo4-AM working solution to each well, and then add 25 μL of compound solution to each well; • (4) Incubate at 37° C. for 30 min for fluorescent probe loading; • (5) Wash three times with HBSS, and add 100 μL of HBSS containing 10 mM CaCl2) to each well. Detect quantitatively the fluorescence of Fluo4-AM using a multifunctional fluorescence microplate reader (excitation wavelength 488 nm, emission wavelength 520 nm) to determine the changes in intracellular calcium ions.
Since empagliflozin indirectly affects intracellular calcium concentration by inhibiting NHE1, the intracellular environment was made acidic by using ammonium chloride solution to simulate the environment during myocardial ischemia, and the effect of the administered composition on intracellular calcium ions was tested. The NHE1 inhibitor cariporide was used as a positive control. The above step (3) was changed to add 25 μL of Fluo4-AM working solution to each well, mix the test compound with 80 mM NH4Cl solution at a 1:1 ratio, and then add 25 μL mixed solution of the compound and NH4Cl to each well (the final concentration of NH4Cl was 20 mM), and the remaining steps were the same as above.

[3] = NH4Cl present (20 mM, acidic intracellular conditions)

SMILES	cell survival rate [1]	lipid accumulation in cardiomyocytes (Oil Red O staining area) (H9c2 cells)	effect on intracellular calcium concentration (Fluo4-AM fluorescence) [2, 3]	effect on intracellular calcium concentration (Fluo4-AM fluorescence) ([2]; absence of NH4Cl)
OC[C@H]1O[C@@H](c2ccc(Cl)c(Cc3ccc(O[C@H]4CCOC4)cc3)c2)[C@H](O)[C@@H](O)[C@@H]1O [empagliflozin]	64.5%	significantly reduce lipid accumulation	significantly reduce intracellular calcium concentration	almost no effect
CC(C)[C@@H]1CC[C@@H](C)C[C@H]1O [menthol, L-menthol]	56.7%	significantly reduce lipid accumulation	weak effect of reducing intracellular calcium concentration	weak inhibitory effect
